# Assay results from patent US20250000826A1, “APPLICATION OF BENZANILIDE COMPOUND IN TUMOR TREATMENT” (NANJING SHIJIANG MEDICINE TECHNOLOGY CO., LTD, priority 2021, published 2025).
# Tests used:
# Format in all cases: cell-based
# NCI-H82 (Con) cell = assay: CellTiter-Glo cell viability, control NCI-H82 cell; settings: Homo sapiens; NCI-H82 transfected with empty virus vector, n=3
# Description: (§1) The NNMT protein-overexpressing NCI-H82 cell (NCI-H82 (ov-NNMT)) was obtained by inserting the NNMT gene into NCI-H82 cell using a viral vector. The control NCI-H82 cell (NCI-H82 (Con)) was obtained by transfecting NCI-H82 cell with empty virus vector without carrying NNMT gene. The IC50 value of niclosamide on control NCI-H82 cell (NCI-H82 (Con)) and NNMT protein-overexpressing NCI-H82 cell (NCI-H82 (ov-NNMT)) was determined using Promega CellTiter-Glo kit which detected cell viability by directly measuring intracellular ATP content (n=3), the experiment result was shown in Table 4 below: […]
# [1] = system: G-401 (human renal carcinoma Wilms cell); assay: CellTiter-Glo cell viability, G-401; settings: G-401, sensitive group, 3-4 days of culture, n=3, read-out: IC50 (μM), inhibitory effect on cell line
# Description: (§2) Cell viability was detected using the Promega CellTiter-Glo kit, cell viability was determined by directly measuring intracellular ATP content. In the experiment, the IC50 value of niclosamide on various tumor cell lines was determined. Each tumor cell was cultured separately in relevant medium (+p/s), and was incubated for 3 h, then the gradient diluted niclosamide was added. After 3-4 days of culture, the relevant IC50 (50% inhibiting concentration) was measured (n=3). The name, source and culture conditions of each tumor cell line were as follows: Cell line NCI-H82 (ATCC, No. HTB-175) was cultured in 10% fetal bovine serum-containing RPMI1640 medium (+P/S). Cell line G401 (ATCC, No. CRL-1441) was cultured in 10% fetal bovine serum-containing McCoy's 5a medium (+P/S).
# [2] = system: NCI-H82 (human small cell lung cancer cell); assay: CellTiter-Glo cell viability, NCI-H82; settings: NCI-H82, sensitive group, 3-4 days of culture, n=3, read-out: IC50 (μM), inhibitory effect on cell line
# Description: as §2, with “(+P/S).” for “(+P/S). Cell line G401 (ATCC, No. CRL-1441) was cultured in 10% fetal bovine serum-containing McCoy's 5a medium (+P/S).”
# NCI-H82 (ov-NNMT) cell = assay: CellTiter-Glo cell viability, NNMT protein-overexpressing NCI-H82 cell; settings: Homo sapiens; NCI-H82 with NNMT gene inserted by viral vector, n=3
# Description: as §1
# [3] = system: GB-1 (human glioblastoma cell); assay: CellTiter-Glo cell viability, GB-1; settings: GB-1, insensitive group, 3-4 days of culture, n=3, read-out: IC50 (μM), inhibitory effect on cell line
# Description: as §2, with “GB-1 (JCRB,” for “G401 (ATCC,”, “IF050489)” for “CRL-1441)”, “[…] DMEM” for “McCoy's 5a”
# [4] = system: WSU-DLCL2 (human diffuse large B-cell lymphoma); assay: CellTiter-Glo cell viability, WSU-DLCL2; settings: WSUDLCL2, WSU-DLCL2, sensitive group, 3-4 days of culture, n=3, read-out: IC50 (μM), inhibitory effect on cell line
# Description: as §2, with “WSU-DLCL2 (DSMZ,” for “G401 (ATCC,”, “ACC-575)” for “CRL-1441)”, “RPMI1640” for “McCoy's 5a”
# [5] = system: MDA-MB-453 (breast cancer cell); assay: CellTiter-Glo cell viability, MDA-MB-453; settings: Homo sapiens; MDA-MB-453, sensitive group, 3-4 days of culture, n=3; read-out: IC50 (μM), inhibitory effect on cell line
# Description: as §2, with “MDA-MB-453” for “G401”, “HTB-131)” for “CRL-1441)”, “Leibovitz's L-15” for “McCoy's 5a”
# [6] = system: CFPAC-1 (human pancreatic cancer cell); assay: CellTiter-Glo cell viability, CFPAC-1; settings: CFPAC-1, insensitive group, 3-4 days of culture, n=3, read-out: IC50 (μM), inhibitory effect on cell line
# Description: as §2, with “CFPAC-1” for “G401”, “CRL-1918)” for “CRL-1441)”, “IMDM” for “McCoy's 5a”
# [7] = system: SF-126 (human glioblastoma multiforme cell); assay: CellTiter-Glo cell viability, SF-126; settings: SF-126, insensitive group, 3-4 days of culture, n=3, read-out: IC50 (μM), inhibitory effect on cell line
# Description: as §2, with “SF126 (JCRB.” for “G401 (ATCC,”, “1F050286)” for “CRL-1441)”, “EMEM” for “McCoy's 5a”
# [8] = system: 786-0 (clear cell renal cell adenocarcinoma cell); assay: CellTiter-Glo cell viability, 786-0; settings: Homo sapiens; 786-0, insensitive group, 3-4 days of culture, n=3; read-out: IC50 (μM), inhibitory effect on cell line
# Description: as §2, with “786-0” for “G401”, “CRL-1932)” for “CRL-1441)”, “RPMI1640” for “McCoy's 5a”
# [9] = system: SW48 (human colon adenocarcinoma cell); assay: CellTiter-Glo cell viability, SW48; settings: SW48, sensitive group, 3-4 days of culture, n=3, read-out: IC50 (μM), inhibitory effect on cell line
# Description: as §2, with “SW48” for “G401”, “CCL-231)” for “CRL-1441)”, “Leibovitz's L-15” for “McCoy's 5a”
structure (smiles),measurement,setting,value
"O=C(Nc1ccc([N+](=O)[O-])cc1Cl)c1cc(Cl)ccc1O [Niclosamide, niclosamide]",IC50,NCI-H82 (Con) cell,120 nM
same,IC50,[1],0.64 µM
same,IC50,[2],0.13 µM
same,IC50,NCI-H82 (ov-NNMT) cell,420 nM
same,IC50,[3],6.68 µM
same,IC50,[4],0.21 µM
same,IC50,[5],0.47 µM
same,IC50,[6],> 50 µM
same,IC50,[7],16.2 µM
same,IC50,[8],> 50 µM
same,IC50,[9],0.72 µM
